*1 amine or outer side, *2 acyl side, *3 side chain or, on linkers, in order; H or OH if unused. Where a SMILES comes first, the peptide text is derived from it. Where no end group is shown, it is not given here. Side-chain parts run from the residue outwards. [ ]: non-standard residue; d: D form. The star is where a group is joined. C16 = palmitoyl, CCCCCCCCCCCCCCCC(=O)*; γGlu = O=C(O)[C@H](CCC(=O)[*:2])N[*:1]; X1 = O=C(C(N[*:1])C(O)c1ccccc1)[*:2]; Palmitoyl = CCCCCCCCCCCCCCCC(=O)*
Experiments:
[1] = Cumulative body weight change in DIO mice, daily s.c. dosing for nine days (Example 18, FIG. 1); assay type: in vivo, mice (strain C57Bl6/NTac); conditions: 9 nmol/kg s.c. daily, day 9
Description: Mice were administered a vehicle control or a dose of a peptide daily for nine days. […] The peptide of SEQ ID NO: 9 was administered at doses of 9 and 25 nmol/kg. Cumulative body weight change (grams) was measured each day of the study except on day 3. Results are shown in FIG. 1 and are expressed as mean±SEM.

[2] = Second study in DIO mice: body weight change percent relative to vehicle (Example 19, FIG. 2); assay type: in vivo, mice (strain C57Bl6/NTac); conditions: eight days
Description: In addition, the peptide of SEQ ID NO: 8 was administered at 15 nmol/kg, while the peptide of SEQ ID NOs: 10 and 11 were administered at 3 nmol/kg. Body weight was measured daily for eight days and body weight change is expressed as percent relative to vehicle (FIG. 2).

[3] = Ambient glucose in DIO mice (Example 21, FIG. 4); assay type: in vivo, mice (strain C57Bl6/NTac); conditions: for change in ambient glucose compared to vehicle: day 9 of dosing
Description: In addition to cumulative body weight change, ambient glucose levels of the DIO mice (strain C57Bl6/NTac) were measured periodically throughout the study.

human GCGR = target: T1, human GCGR (Homo sapiens, UniProt P47871); test: cAMP assay in cells expressing human GCGR (HitHunter cAMP XS); assay type: cell-based; conditions: for hGCGR/hGLP1R (hTone): ratio of EC50 at human GCGR to EC50 at human GLP1R; for EC50: cAMP production, cells expressing human GCGR, assay buffer with 20% human serum, 1 hour
T1 construct: expressed in transfected cells
Description: The cAMP protocol was as follows.
(§1) Peptides were dissolved in 100% DMSO and serially diluted to generate 11 point titrations. The peptide solutions were then transferred into 384-well assay plates (150 nL/well). Assay ready frozen cells expressing human GLP-1R or human GCGR were suspended in growth media consisting of DMEM/F12 medium (GIBCO), 10% FBS (GIBCO), lx P/S (GIBCO), 800 μg/mL Geneticin (GIBCO), and 300 μg/mL Hygromycin (Invitrogen). Cells were then diluted in assay buffer consisting of PBS (GIBCO), 7.5% BSA (Perkin Elmer), 100 μM RO 20-1724 (Sigma), and 20% human serum (MP Biomedical). The cell suspensions (15 μL) were then added to the assay plates containing the peptide solutions (30,000 cells/well for human GCGR; 20,000 cells/well for GLP1R). The cells were incubated for 1 hour at room temperature in the dark. Production of cAMP was determined using HitHunter™ cAMPXS kits (DiscoverX). ED buffer (20 μL) was then added to each well and the plates were incubated for 1 hour at room temperature in the dark. Subsequently, EA buffer (20 μL) was added to each well, and the plates were incubated for 1-18 hours at room temperature in the dark. Luminescence was measured using an EnVision Multilabel plate reader (Perkin Elmer). EC50 values were calculated using ADA data analyzer software.

human GLP-1R = target: T2, human GLP-1R (Homo sapiens, UniProt P43220); test: cAMP assay in cells expressing human GLP-1R (HitHunter cAMP XS); assay type: cell-based; conditions: cAMP production, assay buffer with 20% human serum, 1 hour, read-out: GLPR1 EC50 (nM) human
T2 construct: expressed in transfected cells
T2 sequence (P43220 24-463): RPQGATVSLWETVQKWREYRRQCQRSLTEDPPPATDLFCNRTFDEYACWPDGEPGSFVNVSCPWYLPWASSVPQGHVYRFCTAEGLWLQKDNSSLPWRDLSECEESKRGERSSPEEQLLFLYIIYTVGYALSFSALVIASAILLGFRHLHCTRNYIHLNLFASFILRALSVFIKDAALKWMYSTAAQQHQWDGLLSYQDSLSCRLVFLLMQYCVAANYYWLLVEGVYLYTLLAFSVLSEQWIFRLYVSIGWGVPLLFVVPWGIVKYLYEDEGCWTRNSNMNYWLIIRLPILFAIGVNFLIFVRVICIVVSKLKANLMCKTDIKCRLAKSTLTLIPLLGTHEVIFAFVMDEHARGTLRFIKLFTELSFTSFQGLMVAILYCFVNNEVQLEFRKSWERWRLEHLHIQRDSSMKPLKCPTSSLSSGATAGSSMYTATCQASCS
Description: The cAMP protocol was as follows.
as §1

T1 sequence (P47871 26-477): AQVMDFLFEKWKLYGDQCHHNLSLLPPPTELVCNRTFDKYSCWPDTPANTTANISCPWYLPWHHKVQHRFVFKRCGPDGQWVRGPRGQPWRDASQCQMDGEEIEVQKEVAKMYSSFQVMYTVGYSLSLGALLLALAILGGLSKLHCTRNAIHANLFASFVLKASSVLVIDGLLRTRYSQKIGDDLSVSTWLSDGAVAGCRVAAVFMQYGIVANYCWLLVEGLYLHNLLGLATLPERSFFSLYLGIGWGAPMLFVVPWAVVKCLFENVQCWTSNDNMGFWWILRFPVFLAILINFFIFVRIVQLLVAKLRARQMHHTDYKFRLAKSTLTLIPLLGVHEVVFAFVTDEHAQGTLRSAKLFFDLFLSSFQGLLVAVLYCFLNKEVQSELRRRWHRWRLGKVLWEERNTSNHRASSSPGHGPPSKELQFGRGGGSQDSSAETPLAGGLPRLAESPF

Row | hGCGR/hGLP1R (hTone) (human GCGR) | Compound | body weight loss [1] [grams] | weight loss, percent relative to vehicle ([2]; 9 nmol/kg daily) | change in ambient glucose compared to vehicle ([3]; 9 nmol/kg) | other results
1 |  | CCCCCCCCCCCCCCCC(=O)N[C@@H](CCC(=O)NCCCC[C@H](NC(=O)[C@H](CC(=O)O)NC(=O)[C@H](CO)NC(=O)[C@@H](NC(=O)[C@H](Cc1ccccc1)NC(=O)[C@@H](NC(=O)CNC(=O)[C@H](CCC(N)=O)NC(=O)[C@@H](CO)NC(=O)[C@@H](N)Cc1c[nH]cn1)[C@@H](C)O)[C@@H](C)O)C(=O)N[C@@H](CO)C(=O)N[C@@H](CCCCN)C(=O)N[C@@H](Cc1ccc(O)cc1)C(=O)N[C@@H](CC(C)C)C(=O)N[C@@H](CC(=O)O)C(=O)N[C@@H](C)C(=O)N[C@@H](CCCNC(=N)N)C(=O)N[C@@H](C)C(=O)N[C@@H](C)C(=O)N[C@@H](CCC(N)=O)C(=O)N[C@@H](CC(=O)O)C(=O)N[C@@H](Cc1ccccc1)C(=O)N[C@H](C(=O)N[C@@H](CCC(N)=O)C(=O)N[C@@H](Cc1c[nH]c2ccccc12)C(=O)N[C@@H](CC(C)C)C(=O)N[C@@H](CC(C)C)C(=O)N[C@@H](CC(=O)O)C(=O)N[C@H](C(N)=O)[C@@H](C)O)C(C)C)C(=O)O [SEQ ID NO: 6] | 10.5 | approximately 20% |  | decrease in ambient glucose compared to vehicle ([3]; 9 nmol/kg, day 7 of dosing): -60 mg/dL
2 |  | CCCCCCCCCCCCCCCC(=O)N[C@@H](CCC(=O)N[C@@H](CCC(=O)NCCCC[C@H](NC(=O)[C@H](CC(=O)O)NC(=O)[C@H](CO)NC(=O)[C@@H](NC(=O)[C@H](Cc1ccccc1)NC(=O)[C@@H](NC(=O)CNC(=O)[C@H](CCC(N)=O)NC(=O)[C@@H](CO)NC(=O)[C@@H](N)Cc1c[nH]cn1)[C@@H](C)O)[C@@H](C)O)C(=O)N[C@@H](CO)C(=O)N[C@@H](CCCCN)C(=O)N[C@@H](Cc1ccc(O)cc1)C(=O)N[C@@H](CC(C)C)C(=O)N[C@@H](CC(=O)O)C(=O)N[C@H](C(=O)N[C@@H](CCCNC(=N)N)C(=O)N[C@@H](C)C(=O)N[C@@H](C)C(=O)N[C@@H](CCC(N)=O)C(=O)N[C@@H](CC(=O)O)C(=O)N[C@@H](Cc1ccccc1)C(=O)N[C@H](C(=O)N[C@@H](CCC(N)=O)C(=O)N[C@@H](Cc1c[nH]c2ccccc12)C(=O)N[C@@H](CC(C)C)C(=O)N[C@@H](CC(C)C)C(=O)N[C@@H](CC(=O)O)C(=O)N[C@H](C(N)=O)[C@@H](C)O)C(C)C)C(C)C)C(=O)O)C(=O)O [SEQ ID NO: 8] | 8 | approximately 17% | -72 mg/dL | weight loss, percent relative to vehicle ([2]; 15 nmol/kg daily): approximately 25%
3 |  | CCCCCCCCCCCCCCCC(=O)N[C@@H](CCC(=O)N[C@@H](CCC(=O)NCCCC[C@H](NC(=O)[C@H](CC(=O)O)NC(=O)[C@H](CO)NC(=O)[C@@H](NC(=O)[C@H](Cc1ccccc1)NC(=O)[C@@H](NC(=O)CNC(=O)[C@@H](NC(=O)C(C)(C)NC(=O)[C@@H](N)Cc1c[nH]cn1)C(C)C)[C@@H](C)O)[C@@H](C)O)C(=O)N[C@@H](CO)C(=O)N[C@@H](CCCCN)C(=O)N[C@@H](Cc1ccc(O)cc1)C(=O)N[C@@H](CC(C)C)C(=O)N[C@@H](CC(=O)O)C(=O)NC(C)(C)C(=O)N[C@@H](CCCNC(=N)N)C(=O)N[C@@H](C)C(=O)N[C@@H](C)C(=O)N[C@@H](CCC(N)=O)C(=O)N[C@@H](CC(=O)O)C(=O)N[C@@H](Cc1ccccc1)C(=O)N[C@H](C(=O)N[C@@H](CCC(N)=O)C(=O)N[C@@H](Cc1c[nH]c2ccccc12)C(=O)N[C@@H](CC(C)C)C(=O)N[C@@H](CCCC)C(=O)N[C@@H](CC(=O)O)C(=O)N[C@H](C(N)=O)[C@@H](C)O)C(C)C)C(=O)O)C(=O)O [SEQ ID NO: 9] | ~3 | approximately 5% | did not exhibit significant changes in ambient glucose | decrease in ambient glucose compared to vehicle ([3]; 25 nmol/kg, second day of dosing): -75 mg/dL
4 | 0.93 | CCCCCCCCCCCCCCCC(=O)N[C@@H](CCC(=O)N[C@@H](CCC(=O)NCCCC[C@H](NC(=O)[C@H](CC(=O)O)NC(=O)[C@H](CO)NC(=O)[C@@H](NC(=O)[C@H](Cc1ccc(F)cc1)NC(=O)[C@@H](NC(=O)CNC(=O)[C@H](CCC(N)=O)NC(=O)[C@@H](CO)NC(=O)[C@@H](N)Cc1c[nH]cn1)[C@@H](C)O)[C@@H](C)O)C(=O)N[C@@H](CO)C(=O)N[C@@H](CCCCN)C(=O)N[C@@H](Cc1ccc(O)cc1)C(=O)N[C@@H](CC(C)C)C(=O)N[C@@H](CC(=O)O)C(=O)N[C@@H](CCC(=O)O)C(=O)N[C@@H](CCCNC(=N)N)C(=O)N[C@@H](C)C(=O)N[C@@H](C)C(=O)N[C@@H](CCC(N)=O)C(=O)N[C@@H](CC(=O)O)C(=O)N[C@@H](Cc1ccccc1)C(=O)N[C@H](C(=O)N[C@@H](CCC(N)=O)C(=O)N[C@@H](Cc1c[nH]c2ccccc12)C(=O)N[C@@H](CC(C)C)C(=O)N[C@@H](CC(C)C)C(=O)N[C@@H](CC(=O)O)C(=O)N[C@H](C(N)=O)[C@@H](C)O)C(C)C)C(=O)O)C(=O)O [compound 14] |  |  |  | EC50 (human GCGR): 0.05 nM; EC50 (human GLP-1R): 0.06 nM
5 | 1.02 | CCCCCCCCCCCCCCCC(=O)N[C@@H](CCC(=O)N[C@@H](CCC(=O)NCCCC[C@H](NC(=O)[C@H](CC(=O)O)NC(=O)[C@H](CO)NC(=O)[C@@H](NC(=O)C(NC(=O)[C@@H](NC(=O)CNC(=O)[C@H](CCC(N)=O)NC(=O)[C@@H](CO)NC(=O)[C@@H](N)Cc1c[nH]cn1)[C@@H](C)O)C(O)c1ccccc1)[C@@H](C)O)C(=O)N[C@@H](CO)C(=O)N[C@@H](CCCCN)C(=O)N[C@@H](Cc1ccc(O)cc1)C(=O)N[C@@H](CC(C)C)C(=O)N[C@@H](CC(=O)O)C(=O)N[C@@H](CCC(=O)O)C(=O)N[C@@H](CCCNC(=N)N)C(=O)N[C@@H](C)C(=O)N[C@@H](C)C(=O)N[C@@H](CCC(N)=O)C(=O)N[C@@H](CC(=O)O)C(=O)N[C@@H](Cc1ccccc1)C(=O)N[C@H](C(=O)N[C@@H](CCC(N)=O)C(=O)N[C@@H](Cc1c[nH]c2ccccc12)C(=O)N[C@@H](CC(C)C)C(=O)N[C@@H](CC(C)C)C(=O)N[C@@H](CC(=O)O)C(=O)N[C@H](C(N)=O)[C@@H](C)O)C(C)C)C(=O)O)C(=O)O (stereo partly drawn) [compound 19] (H-H[dS]QGT[X1]TSDK([γGlu-γGlu-Palmitoyl])SKYLDERAAQDFVQWLLDT-NH2; N-terminus assumed) |  |  |  | EC50 (human GCGR): 1.04 nM; EC50 (human GLP-1R): 1.02 nM
6 |  | HsQGTFTSDK(γEγEC16)SKYLDVRRAQDFVQWLLDT-NH2 (H[dS]QGTFTSDK([γGlu-γGlu-C16])SKYLDVRRAQDFVQWLLDT-NH2; N-terminus assumed; SMILES CCCCCCCCCCCCCCCC(=O)N[C@@H](CCC(=O)N[C@@H](CCC(=O)NCCCC[C@H](NC(=O)[C@H](CC(=O)O)NC(=O)[C@H](CO)NC(=O)[C@@H](NC(=O)[C@H](Cc1ccccc1)NC(=O)[C@@H](NC(=O)CNC(=O)[C@H](CCC(N)=O)NC(=O)[C@@H](CO)NC(=O)[C@@H](N)Cc1c[nH]cn1)[C@@H](C)O)[C@@H](C)O)C(=O)N[C@@H](CO)C(=O)N[C@@H](CCCCN)C(=O)N[C@@H](Cc1ccc(O)cc1)C(=O)N[C@@H](CC(C)C)C(=O)N[C@@H](CC(=O)O)C(=O)N[C@H](C(=O)N[C@@H](CCCNC(=N)N)C(=O)N[C@@H](CCCNC(=N)N)C(=O)N[C@@H](C)C(=O)N[C@@H](CCC(N)=O)C(=O)N[C@@H](CC(=O)O)C(=O)N[C@@H](Cc1ccccc1)C(=O)N[C@H](C(=O)N[C@@H](CCC(N)=O)C(=O)N[C@@H](Cc1c[nH]c2ccccc12)C(=O)N[C@@H](CC(C)C)C(=O)N[C@@H](CC(C)C)C(=O)N[C@@H](CC(=O)O)C(=O)N[C@H](C(N)=O)[C@@H](C)O)C(C)C)C(C)C)C(=O)O)C(=O)O) [SEQ ID NO: 7] | ~3 | approximately 5% | did not exhibit significant changes in ambient glucose | 

Row | Compound | hGCGR/hGLP1R (hTone) (human GCGR) | body weight loss [1] [grams] | weight loss, percent relative to vehicle ([2]; 9 nmol/kg daily) | change in ambient glucose compared to vehicle ([3]; 9 nmol/kg) | other results
7 | CCCCCCCCCCCCCCCC(=O)N[C@@H](CCC(=O)N[C@@H](CCC(=O)NCCCC[C@H](NC(=O)[C@H](CC(=O)O)NC(=O)[C@H](CO)NC(=O)[C@@H](NC(=O)[C@H](Cc1ccccc1)NC(=O)[C@@H](NC(=O)CNC(=O)[C@H](CCC(N)=O)NC(=O)[C@H](C)NC(=O)[C@H](Cc1c[nH]cn1)NC(C)=O)[C@@H](C)O)[C@@H](C)O)C(=O)N[C@@H](CO)C(=O)N[C@@H](CCCCN)C(=O)N[C@@H](Cc1ccc(O)cc1)C(=O)N[C@@H](CC(C)C)C(=O)N[C@@H](CC(=O)O)C(=O)N[C@@H](CCC(=O)O)C(=O)N[C@@H](CCCNC(=N)N)C(=O)N[C@@H](C)C(=O)N[C@@H](C)C(=O)N[C@@H](CCC(N)=O)C(=O)N[C@@H](CC(=O)O)C(=O)N[C@@H](Cc1ccccc1)C(=O)N[C@H](C(=O)N[C@@H](CCC(N)=O)C(=O)N[C@@H](Cc1c[nH]c2ccccc12)C(=O)N[C@@H](CC(C)C)C(=O)N[C@@H](CC(C)C)C(=O)N[C@@H](CC(=O)O)C(=O)N[C@H](C(N)=O)[C@@H](C)O)C(C)C)C(=O)O)C(=O)O [compound 12] | 1.00 |  |  |  | 

Source: patent publication US10413593B2 (priority 2014, dated 2019)
